Laboratory results from patent US7566724B2, “Glycine derivative and use thereof” (Toray Industries, Inc., priority 2004, dated 2009).
Structures can show the parent of a compound that is named as a salt. Where two headings read alike, the source gives them in different places.

Tested on: Jurkat cells
Assay: Measurement of Inhibitory Effect on Leukocyte Functions (adhesion of Jurkat cells to ligand-expressing cells or ligand-immobilized plate)
Format: cell-based
Settings: Homo sapiens, 0.5 h, read-out: IC50 (adhesion of Jurkat cells)
Experimental: Jurkat cells which are a cell line originated from human acute T cell lymphoma were allowed to react with BCECF-AM at 37° C. for 20 minutes to fluorescently label the cells. The fluorescently labelled Jurkat cells were allowed to react with ligand-expressing cells or with a ligand-immobilized plate at 37° C. for 30 minutes. After removing non-adherent cells by washing, 1% NP40 was added to lyse the adherent cells, and fluorescence intensity was measured with Cytoflow 2300 (Millipore). From the obtained fluorescence intensity, the number of adherent cells was calculated. Each test compound was reacted with the Jurkat cells before the beginning of the adhesion reaction. In Table 18, the IC50 of each compound is shown.

[1] = fluorescently labelled Jurkat cells, ligand-expressing cells or ligand-immobilized plate, 37° C. 30 minutes

| Compound | IC50 [1] [nM] | IC50 (Jurkat) [nM] |
| --- | --- | --- |
| CCOC1(c2ccc(/C=C/CC(NC(=O)c3c(Cl)cccc3Cl)C(=O)OC)cc2)CCOCC1 (stereo not shown) [Example 5, (E)-2-(2,6-Dichlorobenzamido)-5-[4-(4-ethoxytetrahydropyran-4-yl)-phenyl]pent-4-enoic acid methyl ester] | 100 |  |
| COCC1(c2ccc(/C=C/CC(NC(=O)c3c(Cl)cccc3Cl)C(=O)O)cc2)CCOCC1 (stereo not shown) [Example 8, (E)-2-(2,6-Dichlorobenzamido)-5-[4-(tetrahydro-4-(methoxymethyl)-2H-pyran-4-yl)phenyl]pent-4-enoic acid sodium salt] | 69 |  |
| COC1(c2ccc(/C=C/CC(NC(=O)c3c(Cl)cccc3Cl)C(=O)O)cc2)CCCOCC1 (stereo not shown) [Example 10, (E)-2-(2,6-Dichlorobenzamido)-5-[4-(4-methoxyoxepan-4-yl)phenyl]pent-4-enoic acid sodium salt] | 220 |  |
| O=C(NC(C/C=C/c1ccc(Oc2ncccn2)cc1)C(=O)O)c1c(Cl)cccc1Cl (stereo not shown) [Example 12, (E)-2-(2,6-Dichlorobenzamido)-5-[4-(pyrimidin-2-yloxy)phenyl]pent-4-enoic acid] | 220 |  |
| COCCN(c1ccc(/C=C/CC(NC(=O)c2c(Cl)cccc2Cl)C(=O)O)cc1)c1ncccn1 (stereo not shown) [Example 26, (E)-2-(2,6-Dichlorobenzamido)-5-[4-((2-methoxyethyl)-pyrimidin-2-ylamino)phenyl]pent-4-enoic acid sodium salt] | 36 |  |
| O=C(NC(C/C=C/c1ccc(N(Cc2ccc(O)cc2)c2ncccn2)cc1)C(=O)O)c1c(Cl)cccc1Cl (stereo not shown) [Example 29, (E)-2-(2,6-Dichlorobenzamido)-5-[4-((4-hydroxy-benzyl)-pyrimidin-2-ylamino)phenyl]pent-4-enoic acid] | 41 |  |
| N#CCCN(c1ccc(/C=C/CC(NC(=O)c2c(Cl)cccc2Cl)C(=O)O)cc1)c1ncccn1 (stereo not shown) [Example 31, (E)-5-[4-((2-Cyano-ethyl)-pyrimidin-2-yl-amino)-phenyl]-2-(2,6-dichlorobenzamido)-pent-4-enoic acid sodium salt] | 41 |  |
| COc1ccc(CN(c2ccc(/C=C/CC(NC(=O)c3c(Cl)cccc3Cl)C(=O)O)cc2)c2ncccn2)cc1 (stereo not shown) [Example 35, (E)-2-(2,6-Dichlorobenzamido)-5-[4-((4-methoxy-benzyl)-pyrimidin-2-ylamino)phenyl]pent-4-enoic acid sodium salt] | 88 |  |
| CCCCN(c1ccc(/C=C/CC(NC(=O)c2c(Cl)cccc2Cl)C(=O)O)cc1)c1ncccn1 (stereo not shown) [Example 37, (E)-5-(4-Butyl-pyrimidin-2-yl-amino)-phenyl]-2-(2,6-dichlorobenzamido)-pent-4-enoic acid sodium salt] |  | 160 |
| O=C(NC(C/C=C/c1ccc(N(Cc2cccnc2)c2ncccn2)cc1)C(=O)O)c1c(Cl)cccc1Cl (stereo not shown) [Example 39, (E)-2-(2,6-Dichlorobenzamido)-5-[4-(pyridin-3-ylmethyl-pyrimidin-2-ylamino)phenyl]pent-4-enoic acid sodium salt] | 71 |  |
| O=C(NC(C/C=C/c1ccc(N(Cc2cscn2)c2ncccn2)cc1)C(=O)O)c1c(Cl)cccc1Cl (stereo not shown) [Example 41, (E)-2-(2,6-Dichlorobenzamido)-5-[4-(pyrimidin-2-yl-thiazol-4-ylmethyl-amino)phenyl]pent-4-enoic acid sodium salt] | 950 |  |
| COc1cc(OC)nc(N(C)c2ccc(/C=C/CC(NC(=O)c3c(Cl)cccc3Cl)C(=O)O)cc2)n1 (stereo not shown) [Example 45, (E)-2-(2,6-Dichlorobenzamido)-5-[4-((4,6-dimethoxy-pyrimidin-2-yl)-methyl-amino)phenyl]pent-4-enoic acid] | 890 |  |
| O=C(NC(C/C=C/c1ccc(N(c2ccccc2)c2ncccn2)cc1)C(=O)O)c1c(Cl)cccc1Cl (stereo not shown) [Example 47, (E)-2-(2,6-Dichlorobenzamido)-5-[4-(phenyl-pyrimidin-2-ylamino)phenyl]pent-4-enoic acid sodium salt] | 930 |  |
